{"source": "patent US7744936B2", "about": "“Method for preparing extract from wild ginseng showing anticancer activity and the composition comprising the same” (Seocksanteo Medical Co., Ltd., priority 2004, dated 2010)", "key": {"[1]": {"system": "Lewis lung carcinoma cells", "experiment": "Inhibition of tumor volume increase, Lewis lung carcinoma in mice", "assay_type": "in vivo, BDF-1 male mice", "conditions": "0.5 mg/mouse intraperitoneally, 2 weeks", "experimental": "To determine the inhibitory effect on the volumetric increase of cancer cell, following experiment was performed by modifying the procedure disclosed in the literature (Teruhiro et al., Cancer Res., 56, pp 2809-14, 1996).\nLewis lung carcinoma cells (1×10^6 cells/well) which had been sub-cultured in vivo of experimental mouse and adjusted the concentration to 1×10^6 cells/well, was injected into the left armpit of BDF-1 male mice (6-week-old). After 24 hours, adriamycin in the concentration of 0.5 and 1 mg/mouse, and the extracts prepared in Comparative Example 1, 2 and Example 1, 2 in the concentration of 50 and 100 μl/mouse were injected into the mice intraperitoneally. The injection of samples was maintained for 2 weeks until the tumor volume of non-treatment group used as control group become to 2 cm^3. After 2 weeks, the tumor volume was calculated by using following mathematical formulae 1 and 2 to measure the inhibition rate of tumor volume.\n[formula] L (cm): Length of the tumor W^2 (cm^2): Width of the tumor\n[formula] A: Tumor volume (cm^3) of control group B: Tumor volume (cm^3) of sample treatment group"}, "[2]": {"system": "A549 cells (human lung cancer cell line)", "experiment": "MTT cell cytotoxicity on A549 cells", "assay_type": "cell-based", "conditions": "48 hours, adriamycin, read-out: IC50, cytotoxic effect on A549 cells (text, printed A5497)", "experimental": "(§1) U937 cells (human leukemia cell line), A549 cells (human lung cancer cell line) and MDA-MB-231 (human breast cancer cell line) cells were grown on the culture dish having 100 mm diameter (TPP Co., Ltd., Switzerland) in RPMI1640 (Gibco BRL Co., Ltd., USA), supplemented with 10% fetal bovine serum which was inactivated at 37° C. in 5% CO2 and 95% air condition in a humidified incubator. […] Cells on […] culture dish were treated with 500 μl of trypsin-EDTA (Gibco BRL Co., Ltd., U.S.A.) to separate from the dish and 10 ml of fresh medium was added thereto so as to neutralize trypsin-EDTA solution and obtain cell suspension. 1×10^4 cells/well were seeded in 96-well plate and after 24 hours incubation. […] The plate was incubated for 20 minutes at room temperature and then UV absorbance the samples was measured by microplate reader (ELISA reader, DENLEY Co., Japan) to calculate the cell viability at 570 nm. The cell viability rate of negative control group treated with only medium was calculated as a 100% and those of other sample and positive control were calculated. […] The measured absorbance showing the reduced amount of existing cellular enzyme in MTT was proportioned to survival cell density. […]"}, "[3]": {"system": "U937 cells (human leukemia cell line)", "experiment": "MTT cell cytotoxicity on U937 cells", "assay_type": "cell-based", "conditions": "U-937, 48 hours, adriamycin, read-out: IC50, cytotoxic effect on U937 cells", "experimental": "as §1"}, "splenic leucocytes": {"system": "splenic leucocytes", "experiment": "Immunostimulating effect on splenic leucocytes (flow cytometry)", "assay_type": "cell-based, BALB c mouse", "conditions": "3 days", "experimental": "To determine the immunostimulating effect of the extract of the present invention, splenic leucocytes (1×10^6 cells/ml) of BALB c mouse were suspended in RPMI1640 medium (Gibco BRL Co., Ltd., USA) supplemented with 100 μg/ml of streptomycin, 100 U/ml of penicillin and 10% fetal bovine serum, and treated with 200 μl/ml of the extracts of Comparative Example 1, 2 and Example 1, 2, respectively. The solution was incubated at 37° C. in 5% CO2 and 95% air condition in a humidified incubator for 3 days and the formation of leucocytes was determined by Flow cytometry. 200 μg/ml of adriamycin treatment group was used as control group."}, "[4]": {"system": "MDA-MB-231 (human breast cancer cell line)", "experiment": "MTT cell cytotoxicity on MDA-MB-231 cells", "assay_type": "cell-based", "conditions": "48 hours, adriamycin, read-out: IC50, cytotoxic effect on MDA-MB-231 cells", "experimental": "as §1"}}}
{"molecule": "COc1cccc2c1C(=O)c1c(O)c3c(c(O)c1C2=O)C[C@@](O)(C(=O)CO)C[C@@H]3O[C@H]1C[C@H](N)[C@H](O)[C@H](C)O1", "note": "[Adriamycin, adriamycin]", "values": [{"measurement": "Inhibition effect (%) on tumor volume", "setting": "[1]", "result": "31.20 ± 8.05", "unit": "%"}, {"measurement": "IC50", "setting": "[2]", "result": 3, "unit": "µg/mL"}, {"measurement": "IC50", "setting": "[3]", "result": 3, "unit": "µg/mL"}, {"measurement": "Decrease of immunity", "setting": "splenic leucocytes; 200 μg/ml adriamycin", "result": 26.1, "unit": "%"}, {"measurement": "Increase rate of lymphocyte (%)", "setting": "splenic leucocytes; concentration 200 μg/ml", "result": "−21.6", "unit": "%"}, {"measurement": "IC50", "setting": "[4]", "result": 3, "unit": "µg/mL"}]}
